# Assay results taken from PMC9782211 (Microorganisms, 2022).
# Experiments:
# [1] = Maximum attainable test concentration based on solubility; assay type: physicochemical; details: in aqueous 1% Pluronic PE9200
# [2] = tested on: male Wistar rats; assay: Modified Irwin test (neurobehavioral activity)
# Description: In this test, an examination is done whether or not drugs induce behavioural and physiologically relevant effects. […] The modified Irwin test was performed under GLP conditions and was comprised of a standard observation battery of tests addressing various parameters of the central nervous, autonomic nervous, peripheral motor, and sensory systems.
# The study comprised five treatment groups with six male animals each.
# The following investigations were made at the following time points: • Mortality: twice daily during the observation period • Clinical observations: on the day of treatment before application • Body weight development: on the day of delivery and on the day of treatment before application • Modified Irwin test: at the time points pre-test (24 h prior to administration), 1 h, 4 h, 7 h, 24 h, 48 h, and 72 h after application.
# Statistical analyses of the data were performed for each group separately. Group mean values (means) with standard deviation (SD) were calculated for body weights, each parameter of the Irwin Test, and each investigation time point.
# For Irwin Test parameters, statistical differences between the positive control group and the vehicle control group and between the test item groups and the vehicle control group were evaluated by the Mann–Whitney U-test, using an MS Excel® statistics tool developed and validated in-house; p < 0.05 was accepted as the level of significance.
# [3] = tested on: human erythrocytes; assay: Hemolysis assay; assay type: cell-based; details: pH 7.4, 37 °C, 30 min
# Description: The activity of the peptides to lyse freshly isolated human erythrocytes was determined in PBS, pH 7.4 at 37 °C. Dilutions were prepared in duplicate in a round bottom microtiter plate. For that, 20 µL erythrocytes (5 · 10^8 cells/mL) was incubated with 80 µL of a peptide sample at 37 °C for 30 min in a humidified box. The hemolytic activity after incubation was measured by transferring the supernatants into another empty microtiter plate. This plate was read on a microtiter plate reader at 405 nm. Hemolytic activity was expressed as the percentage of released hemoglobin with respect to water/buffer controls (100% release) or controls processed without peptides (0% release).
# Red blood cells (RBCs) were obtained from citrated human blood by centrifugation (1500× g, 10 min), washed three times with isotonic 20 mM phosphate-NaCl buffer (pH 7.4), and suspended in the same buffer at a concentration equivalent to 5% of the normal hematocrit. […] The supernatants were analyzed spectrophotometrically (with absorbance at 543 nm) for hemoglobin, and results were expressed as the percentage released with respect to sonicated controls (100% release) or controls processed without peptides (0% release).
# [4] = tested on: human PBMC cells; assay: Bionas chip-based system, respiration rate; assay type: cell-based; details: 24 h peptide exposure
# Description: (§1) Cytotoxicity was assayed by using the chip-based Bionas system with four different cell types. These include human hepatoma cells (HepG2), human colon adenocarcinoma cells (LS-174T), human acute lymphocytic leukemic cells (Jurkat), and human peripheral blood mononuclear cells (hPBMC), provided by Cell Line Services (Piscataway, NJ, USA) and ProBioGen (Berlin, Germany). The cells were seeded on chips, with a density of 200,000 cells/chip for HepG2 and LS-174T, 300,000 cells/chip for Jurkat, and 2 million cells/chip for PBMC.
# (§2) A metabolic investigation with four cells and cell lines on the effect of Pep19-2.5 on selected cell parameters was performed. In detail, see Table 1.
# (§3) The analysis was performed in the Bionas® 2500 analyzing system by seeding the cells on the chips, with cell numbers of 200,000 for HepG2 cells and LS-174T cells, and 300,000 for Jurkat cells. The suspended cells were embedded on the day of the experiment in agarose and immediately put into the Bionas® 2500 analyzing system. The settling phase (‘RM’) was 5 h. The peptides were added after 5 h for 24 h, then a regeneration phase followed for 4 h (‘RM’), and in the last phase the cells were lysed with 0.2% triton in fresh medium (‘TX’). For the parameters acidification, respiration, and adhesion (impedance), the mean values from two experiments were calculated. […]
# [5] = tested on: LS-174T cells (human colon adenocarcinoma cell line); assay: Bionas chip-based system, respiration rate; assay type: cell-based; details: 24 h peptide exposure
# Description: as §1, §2, §3
# [6] = tested on: local lymph node; assay: Local lymph node assay (LLNA), skin sensitization; assay type: in vivo, mouse
# Description: • Application of substance on external surface of each ear (25 µL/ear) for 3 consecutive days • On day 6, intravenous injection of tritiated methyl thymidine (^3HTdR) in tail vein, and after about 6 h, sacrification and preparation of lymph node cell • Cell proliferation in lymph node measured by incorporation of ^3HTdR
# [7] = biological target: hERG ion channel (Homo sapiens, UniProt Q12809); assay: Manual patch clamp, hERG channel currents; assay type: cell-based; details: 1 µg/mL, fraction
# Sequence of hERG ion channel (Q12809 whole entry): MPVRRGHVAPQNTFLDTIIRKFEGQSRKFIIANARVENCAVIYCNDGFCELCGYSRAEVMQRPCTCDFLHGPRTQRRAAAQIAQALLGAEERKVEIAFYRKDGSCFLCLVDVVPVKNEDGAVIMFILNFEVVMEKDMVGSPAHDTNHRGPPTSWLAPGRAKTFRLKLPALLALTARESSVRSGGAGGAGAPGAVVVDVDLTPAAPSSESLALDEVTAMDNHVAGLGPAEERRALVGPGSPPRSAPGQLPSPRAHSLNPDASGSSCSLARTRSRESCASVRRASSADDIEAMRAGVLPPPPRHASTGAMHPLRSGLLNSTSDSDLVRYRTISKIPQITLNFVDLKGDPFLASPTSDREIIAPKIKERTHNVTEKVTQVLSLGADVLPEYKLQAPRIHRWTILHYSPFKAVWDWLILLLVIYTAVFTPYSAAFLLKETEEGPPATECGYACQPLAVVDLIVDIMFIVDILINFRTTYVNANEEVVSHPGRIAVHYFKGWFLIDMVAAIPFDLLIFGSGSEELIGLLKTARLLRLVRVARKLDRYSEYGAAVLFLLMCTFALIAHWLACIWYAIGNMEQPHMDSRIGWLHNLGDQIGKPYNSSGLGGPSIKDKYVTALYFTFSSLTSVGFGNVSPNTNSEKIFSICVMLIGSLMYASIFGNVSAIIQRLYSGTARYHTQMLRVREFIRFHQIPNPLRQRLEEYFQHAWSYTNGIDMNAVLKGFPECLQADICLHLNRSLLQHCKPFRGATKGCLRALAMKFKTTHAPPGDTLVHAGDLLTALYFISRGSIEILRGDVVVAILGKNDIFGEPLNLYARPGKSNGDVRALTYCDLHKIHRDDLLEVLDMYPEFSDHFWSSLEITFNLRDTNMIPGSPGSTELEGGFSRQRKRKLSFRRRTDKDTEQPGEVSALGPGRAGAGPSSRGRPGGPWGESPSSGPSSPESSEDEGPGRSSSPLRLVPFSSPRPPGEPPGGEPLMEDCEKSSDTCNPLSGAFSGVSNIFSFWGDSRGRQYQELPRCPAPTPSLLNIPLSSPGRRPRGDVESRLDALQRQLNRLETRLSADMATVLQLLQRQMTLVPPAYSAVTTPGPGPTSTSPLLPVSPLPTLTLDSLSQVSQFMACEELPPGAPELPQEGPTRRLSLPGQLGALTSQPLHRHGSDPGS
# Description: Manual patch clamp experiments were performed in the whole cell configuration [20] at room temperature. An EPC 10 patch clamp amplifier and the PatchMaster software (v2x90.5; both HEKA Elektronik, Germany) were used. […] The data were analyzed using R (version 3.6.3).
# The manual patch clamp recordings on the hERG ion channel were performed with the same stimulation protocol as previously described, with an adjusted holding potential of −70 mV. After the establishment of the whole cell, the stimulation protocol was executed every 15 s for a period of 20 min. The application protocol had the following course: 5 min negative control period with an application of 0.1% DMSO, 10 min application of the test compound in one concentration, and 5 min positive control period with an application of E4031 (10 µM).
# The extracellular solution for the recordings contained (in mM): 145 NaCl, 4 KCl, 10 glucose, 10 HEPES, 2 CaCl2, and 1 MgCl2; pH was adjusted to 7.4 by adding NaOH. The osmolarity of the solution was adjusted to 305 mOsmol/kg. The intracellular solution contained (in mM): 120 KCl, 1.7 MgCl2, 4 K2ATP, 5 CaCl2, 10 HEPES, and 10 EGTA; pH was adjusted to 7.2 by adding KOH. The osmolarity was adjusted to 292 mOsmol/kg.
structure (smiles),measurement,setting,value
N=C(N)NCCC[C@H](NC(=O)[C@H](Cc1ccc(O)cc1)NC(=O)[C@H](CCCCN)NC(=O)[C@H](CCCCN)NC(=O)[C@H](CS)NC(=O)CN)C(=O)N[C@@H](CCCNC(=N)N)C(=O)N[C@@H](Cc1ccccc1)C(=O)N[C@@H](CCCNC(=N)N)C(=O)N[C@@H](Cc1c[nH]c2ccccc12)C(=O)N[C@@H](CCCCN)C(=O)N[C@@H](Cc1ccccc1)C(=O)N[C@@H](CCCCN)C(=O)NCC(=O)N[C@@H](CCCCN)C(=O)N[C@@H](Cc1ccccc1)C(=O)N[C@@H](Cc1c[nH]c2ccccc12)C(=O)N[C@@H](Cc1ccccc1)C(=O)N[C@@H](Cc1c[nH]c2ccccc12)C(=O)NCC(N)=O [Pep19-2.5],maximum attainable test concentration based on solubility,[1],5 % (w/v)
same,"spontaneous locomotor activity, median score","[2]; 0.02 mg/kg b.w., 1 h, negative control 0.0, not significant",−0.5
same,"positional passivity, median score","[2]; 0.02 mg/kg, 1 h, saline 1.0, p < 0.05",0.0
same,"hind limb tone, median score","[2]; 0.02 mg/kg, 72 h, negative control 1.0",2.0
same,"spontaneous locomotor activity, median score","[2]; 0.2 mg/kg b.w., 48 and 72 h, saline −1.0, p < 0.05 at 72 h",0.5
same,"spontaneous locomotor activity, median score","[2]; 0.2 mg/kg b.w., 1 h, negative control 0.0, not significant",−1.0
same,"head touch, median score","[2]; 0.2 mg/kg, 7 h, saline −1.0, p < 0.01",0.0
same,"rearing, median score","[2]; 0.2 mg/kg, 48 h, saline −1.0, p < 0.05",1.0
same,"finger approach, median score","[2]; 0.2 mg/kg, 72 h, saline 0.0, p < 0.05",2.0
same,"rearing, median score","[2]; 0.2 mg/kg, 72 h, saline −1.0, p < 0.01",1.0
same,"spontaneous locomotor activity, median score","[2]; 2 mg/kg b.w., 1 h, negative control 0.0, not significant",−1.0
same,effect in Irwin test,[2]; high dose 2 mg/kg single i.v.,"Significant differences were also observed in the high dose group (2 mg/kg), in terms of sensitivity to pinching the tail and vocalization when touched and hind limb reflex"
same,"vocalization when touched, median score","[2]; high dose 2 mg/kg, 1 and 24 h, control 0.0, p < 0.05",1.0
same,"sensitivity to pinching of the tail, median score","[2]; high dose 2 mg/kg, 1 h, negative control 0.0, p < 0.01",−1.5
same,"sensitivity to pinching of the tail, median score","[2]; high dose 2 mg/kg, 7 h, saline 0.0, p < 0.05",−1.5
same,effect in Irwin test,[2]; low dose 0.02 mg/kg single i.v.,No effect
same,"sensitivity to pinching of the tail, median score","[2]; low dose 0.02 mg/kg, 1 h",0.0
same,effect in Irwin test,[2]; mid dose 0.2 mg/kg single i.v.,"significant differences to the negative control were noted in rearing, spontaneous locomotor activity and sensitivity to pinching the tail"
same,"sensitivity to pinching of the tail, median score","[2]; mid dose 0.2 mg/kg, 1 h",−1.5
same,neurobehavioral effects overall,"[2]; single i.v., 0.02, 0.2 and 2 mg/kg",No relevant neurobehavioral effects
same,lysis of erythrocytes,"[3]; at 100 μg/mL, released hemoglobin vs 100% release control",≤ 20%
same,concentration above which cytotoxicity increases (hemolysis),[3],above 20 μg/mL
same,concentration above which respiration rate increased significantly,[4],above 50 μg/mL
same,concentration above which toxic effects are observed (respiration rate),[5],above 20 μg/mL
same,skin sensitization potential,"[6]; 5%, 2.5%, 1% and 0.5% (w/v) in 1% Pluronic aqueous solution, 25 µL/ear, 3 consecutive days, 3HTdR incorporation",no skin sensitization potential
same,preliminary irritation/toxicity test,[6]; up to 5% (w/v) in aqueous 1% Pluronic,no adverse effect
same,Rel. Rem. Current ± SD (Manual Patch-Clamp),[7],1.00 ± 0.04
